# Reference: patent US8962641B2, “Pyrimidine-substituted pyrrolidine derivatives, pharmaceutical compositions and uses thereof” (Boehringer Ingelheim International GmbH, priority 2013, dated 2015)
# Target: human ACC2 (Homo sapiens (Human), UniProt O00763)
# Experiment: ACC2 assay (spectrophotometric 384 well assay, NADH-linked kinetic method)
# Format: biochemical
# Settings: hACC2 construct lacking 128 N-terminal amino acids; coupled lactate dehydrogenase/pyruvate kinase reaction, 340 nm, 25° C.
# Procedure: Spectrophotometric 384 Well Assay
# Malonyl CoA formation by acetyl CoA carboxylases is stoichometrically linked to the consumption of ATP. ACC2 activity is measured in a NADH-linked kinetic method measuring ADP generated during the ACC reaction using a coupled lactate dehydrogenase/pyruvate kinase reaction.
# The protein is then expressed in insect cells using a baculoviral expression system. Protein purification is performed by anion exchange.
# All compounds are dissolved in dimethyl sulfoxide (DMSO) to a concentration of 10 mM.
# The enzymatic reaction is then started by addition of a mixture of NADH, acetyl Coenzyme A (both 200 μM f.c.) and ATP (500 uM f.c.). The decrease of the optical density (slope S) is then determined at 25° C. at a wavelength of 340 nm over 15 minutes in a spectrophotometric reader.
# Each assay microtiter plate contains wells with vehicle instead of compound as controls for the non-inhibited enzyme (100% CTL; ‘HIGH’) and wells without acetyl-CoA as controls for non-specific NADH degradation (0% CTL; ‘LOW’).
# Sequence of human ACC2 (O00763 129-2458): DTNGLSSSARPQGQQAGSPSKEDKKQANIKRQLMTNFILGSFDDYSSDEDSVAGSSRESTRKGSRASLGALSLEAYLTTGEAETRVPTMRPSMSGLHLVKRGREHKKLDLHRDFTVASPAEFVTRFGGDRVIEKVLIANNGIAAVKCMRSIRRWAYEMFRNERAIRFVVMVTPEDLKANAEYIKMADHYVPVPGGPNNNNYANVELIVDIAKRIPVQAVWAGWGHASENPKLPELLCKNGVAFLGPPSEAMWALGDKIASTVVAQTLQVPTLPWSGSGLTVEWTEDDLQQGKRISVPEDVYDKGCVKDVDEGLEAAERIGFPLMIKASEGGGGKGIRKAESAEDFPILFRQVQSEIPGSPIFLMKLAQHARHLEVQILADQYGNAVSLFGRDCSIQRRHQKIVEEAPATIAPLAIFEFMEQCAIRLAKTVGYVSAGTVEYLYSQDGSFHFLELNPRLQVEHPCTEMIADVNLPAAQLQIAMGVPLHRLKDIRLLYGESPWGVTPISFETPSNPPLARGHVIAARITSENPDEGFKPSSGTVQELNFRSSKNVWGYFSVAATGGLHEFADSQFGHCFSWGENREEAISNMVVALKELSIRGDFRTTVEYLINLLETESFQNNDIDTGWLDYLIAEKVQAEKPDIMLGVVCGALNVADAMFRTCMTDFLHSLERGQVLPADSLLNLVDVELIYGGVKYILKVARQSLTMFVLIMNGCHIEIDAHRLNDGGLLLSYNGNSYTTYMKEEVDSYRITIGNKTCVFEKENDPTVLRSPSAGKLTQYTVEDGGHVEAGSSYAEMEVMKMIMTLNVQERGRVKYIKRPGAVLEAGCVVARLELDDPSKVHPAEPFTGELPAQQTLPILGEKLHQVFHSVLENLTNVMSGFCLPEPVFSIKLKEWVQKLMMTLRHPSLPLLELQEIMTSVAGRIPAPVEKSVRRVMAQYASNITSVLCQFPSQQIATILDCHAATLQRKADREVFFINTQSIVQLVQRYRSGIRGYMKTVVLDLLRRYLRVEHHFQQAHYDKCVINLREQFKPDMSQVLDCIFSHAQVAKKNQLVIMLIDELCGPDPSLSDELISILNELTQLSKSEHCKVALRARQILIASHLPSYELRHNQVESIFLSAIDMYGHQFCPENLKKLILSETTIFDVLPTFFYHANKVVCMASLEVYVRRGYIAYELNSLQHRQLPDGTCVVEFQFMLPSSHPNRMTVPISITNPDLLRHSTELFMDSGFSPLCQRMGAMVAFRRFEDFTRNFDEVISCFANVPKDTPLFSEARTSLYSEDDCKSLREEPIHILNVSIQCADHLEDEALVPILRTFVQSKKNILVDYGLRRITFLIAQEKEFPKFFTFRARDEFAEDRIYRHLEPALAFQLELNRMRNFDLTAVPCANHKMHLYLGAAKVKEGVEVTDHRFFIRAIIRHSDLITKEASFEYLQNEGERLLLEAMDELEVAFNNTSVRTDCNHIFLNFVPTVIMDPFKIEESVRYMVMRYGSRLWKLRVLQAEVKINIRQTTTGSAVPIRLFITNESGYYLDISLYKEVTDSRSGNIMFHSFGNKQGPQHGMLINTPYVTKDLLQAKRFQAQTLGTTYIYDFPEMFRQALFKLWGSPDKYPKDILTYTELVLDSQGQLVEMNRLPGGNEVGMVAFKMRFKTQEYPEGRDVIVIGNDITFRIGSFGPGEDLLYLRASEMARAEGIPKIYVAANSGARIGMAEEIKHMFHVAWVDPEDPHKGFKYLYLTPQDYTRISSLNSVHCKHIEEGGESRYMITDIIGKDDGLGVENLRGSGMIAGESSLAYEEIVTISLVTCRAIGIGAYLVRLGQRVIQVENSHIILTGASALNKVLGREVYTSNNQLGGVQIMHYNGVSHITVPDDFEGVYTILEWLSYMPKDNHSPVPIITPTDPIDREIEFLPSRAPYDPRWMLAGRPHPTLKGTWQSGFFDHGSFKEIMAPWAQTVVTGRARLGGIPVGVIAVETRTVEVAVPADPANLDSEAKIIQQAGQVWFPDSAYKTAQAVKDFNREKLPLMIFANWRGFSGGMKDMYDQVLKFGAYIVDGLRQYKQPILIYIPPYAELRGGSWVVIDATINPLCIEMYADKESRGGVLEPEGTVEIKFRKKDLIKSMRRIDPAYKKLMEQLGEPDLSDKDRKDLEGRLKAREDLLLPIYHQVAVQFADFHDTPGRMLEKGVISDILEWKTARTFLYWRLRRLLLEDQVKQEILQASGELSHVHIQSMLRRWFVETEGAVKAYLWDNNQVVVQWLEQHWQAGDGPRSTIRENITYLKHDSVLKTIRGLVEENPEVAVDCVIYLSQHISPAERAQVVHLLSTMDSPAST
row,IC50 [nM],Compound
1,865,CC(=O)N[C@@H](C)c1ccc(O[C@@H]2CCN(c3ccnc(N4CCC(C)(O)C4)n3)C2)cc1 (stereo partly drawn) [Example 8.214]
2,64,CC(=O)N[C@@H](C)c1ccc(O[C@@H]2CCN(c3nc(N(C)C4CCC4)ncc3Cl)C2)cc1 [Example 8.267]
3,719,CC(=O)N[C@@H](C)c1ccc(O[C@@H]2CCN(c3nc(N(C)CCOC(C)(C)C)ncc3F)C2)cc1 [Example 8.215]
4,278,CC(=O)N[C@@H](C)c1ccc(O[C@@H]2CCN(c3ccnc(N(C)C4CCCOC4)n3)C2)cc1 (stereo partly drawn) [Example 8.180]
5,282,CC(=O)N[C@@H](C)c1ccc(O[C@@H]2CCN(c3ccnc(N4CCCOCC4)n3)C2)cc1 [Example 8.264]
6,369,CC(=O)N[C@@H](C)c1ccc(O[C@@H]2CCN(c3nc(N4C[C@@H]5CC[C@@H](C4)O5)ncc3F)C2)cc1 [Example 8.279]
7,2320,CC(=O)N[C@@H](C)c1ccc(O[C@@H]2CCN(c3ncnc(N4C[C@@H]5C[C@H]4CO5)c3F)C2)cc1 [Example 8.147]
8,215,CCN(CCO)c1ncc(F)c(N2CC[C@@H](Oc3ccc([C@H](C)NC(C)=O)cc3)C2)n1 [Example 8.240]
9,303,CC(=O)N[C@@H](C)c1ccc(O[C@@H]2CCN(c3nc(N4CCC(C)(O)C4)ncc3Cl)C2)cc1 (stereo partly drawn) [Example 8.256]
10,129,COC[C@@H]1CCCN1c1ncc(F)c(N2CC[C@@H](Oc3ccc([C@H](C)NC(C)=O)cc3)C2)n1 [Example 8.262]
11,183,COC1CCCN(c2ncc(F)c(N3CC[C@@H](Oc4ccc([C@H](C)NC(C)=O)cc4)C3)n2)C1 (stereo partly drawn) [Example 8.275]
12,790,COc1c(N2CC[C@@H](Oc3ccc([C@H](C)NC(C)=O)cc3)C2)ncnc1N1CCC(C)(O)C1 (stereo partly drawn) [Example 8.295]
13,393,CC(=O)N[C@@H](C)c1ccc(O[C@@H]2CCN(c3ccnc(N(C)C4CCOCC4)n3)C2)cc1 [Example 8.195]
14,464,CC(=O)N[C@@H](C)c1ccc(O[C@@H]2CCN(c3ncnc(C4CCCC4)c3F)C2)cc1 [Example 9.4]
15,360,COC1CCN(c2ncnc(N3CC[C@@H](Oc4ccc([C@H](C)NC(C)=O)cc4)C3)c2F)CC1 [Example 8.213]
16,301,CC(=O)N[C@@H](C)c1ccc(O[C@@H]2CCN(c3nc(NCC4CC4)ncc3F)C2)cc1 [Example 8.303]
17,1060,COC1CCCN(c2ncnc(N3CC[C@@H](Oc4ccc([C@H](C)NC(C)=O)cc4)C3)c2F)C1 (stereo partly drawn) [Example 8.252]
18,42,CC(=O)N[C@@H](C)c1ccc(O[C@@H]2CCN(c3ncnc(NCC4CC4)c3Cl)C2)cc1 [Example 8.309]
19,484,CC(=O)N[C@@H](C)c1ccc(O[C@@H]2CCN(c3nc(N4CC(F)(F)C4)ncc3Cl)C2)cc1 [Example 8.289]
20,714,CC(=O)N[C@@H](C)c1ccc(O[C@@H]2CCN(c3nc(N4CCOCC4C)ncc3Cl)C2)cc1 (stereo partly drawn) [Example 8.210]
21,105,CC(=O)N[C@@H](C)c1ccc(O[C@@H]2CCN(c3nc(N(C)C4CCCOC4)ncc3F)C2)cc1 (stereo partly drawn) [Example 8.166]
22,1120,COC[C@H]1CCCN1c1ncc(F)c(N2CC[C@@H](Oc3ccc([C@H](C)NC(C)=O)cc3)C2)n1 [Example 8.182]
23,673,CC(=O)N[C@@H](C)c1ccc(O[C@@H]2CCN(c3ncnc(N4C[C@@H]5CC[C@@H](C4)O5)c3F)C2)cc1 [Example 8.278]
24,733,COC[C@H]1CCCN1c1ncnc(N2CC[C@@H](Oc3ccc([C@H](C)NC(C)=O)cc3)C2)c1F [Example 8.197]
25,1230,CC(=O)N[C@@H](C)c1ccc(O[C@@H]2CCN(c3nc(N4C[C@@H]5CC[C@@H](C4)O5)ncc3Cl)C2)cc1 [Example 8.280]

# The remaining lines, values behind:
row,Compound,IC50 [nM]
1,CC(=O)N[C@@H](C)c1ccc(O[C@@H]2CCN(c3nc(N4CCC(C)C4)ncc3F)C2)cc1 (stereo partly drawn) [Example 8.70],59
2,CCN(CCC#N)c1ncnc(N2CC[C@@H](Oc3ccc([C@H](C)NC(C)=O)cc3)C2)c1Cl [Example 8.116],470
3,CNC(=O)N[C@@H](C)c1ccc(OC2CCN(c3ccnc(N4CCOCC4)n3)C2)cc1 (stereo partly drawn) [Example 3.8],260
4,CCN(C)c1nccc(N2CCC(Oc3ccc([C@H](C)NC(=O)C4CC4)cc3)C2)n1 (stereo partly drawn) [Example 2.14],63
5,CC(=O)N[C@@H](C)c1ccc(O[C@@H]2CCN(c3ncnc(OCC(C)(C)O)c3Cl)C2)cc1 [Example 7.42],81
6,CC(=O)N[C@@H](C)c1ccc(O[C@@H]2CCN(c3ccnc(N4CC(F)(F)C(F)(F)C4)n3)C2)cc1 [Example 8.74],115
7,CCCN(C)c1ncc(C#N)c(N2CC[C@@H](Oc3ccc([C@H](C)NC(C)=O)cc3)C2)n1 [Example 8.34],1080
8,CC(=O)N[C@@H](C)c1ccc(O[C@@H]2CCN(c3nc(OCC(F)F)ncc3F)C2)cc1 [Example 7.15],828
9,C[C@H](NC(=O)c1cnco1)c1ccc(OC2CCN(c3ccnc(N4CCOCC4)n3)C2)cc1 (stereo partly drawn) [Example 2.6],320
10,CCNC(=O)N[C@@H](C)c1ccc(OC2CCN(c3ccnc(N4CCOCC4)n3)C2)cc1 (stereo partly drawn) [Example 3.3],445
11,C[C@H](NC(=O)Nc1ccon1)c1ccc(OC2CCN(c3ccnc(N4CCOCC4)n3)C2)cc1 (stereo partly drawn) [Example 3.5],299
12,CCN(C)c1nccc(N2CCC(Oc3ccc([C@H](C)NC(=O)c4cn[nH]c4)cc3)C2)n1 (stereo partly drawn) [Example 2.17],118
13,C[C@H](NC(=O)c1cncs1)c1ccc(O[C@@H]2CCN(c3ccnc(C(F)(F)F)n3)C2)cc1 [Example 6.16],153
14,CNC(=O)N[C@@H](C)c1ccc(OC2CCN(c3ncnc(OCC4CC4)c3F)C2)cc1 (stereo partly drawn) [Example 3.11],110
15,CCC(=O)N[C@@H](C)c1ccc(OC2CCN(c3ccnc(N(C)CC(F)F)n3)C2)cc1 (stereo partly drawn) [Example 2.16],45
16,C[C@H](NC(=O)C1CC1)c1ccc(OC2CCN(c3ccnc(N4CCOCC4)n3)C2)cc1 (stereo partly drawn) [Example 2.2],359
17,C[C@H](NC(=O)N(C)C)c1ccc(O[C@H]2CCN(c3nc(N4CCC5(CC5)C4)ncc3F)C2)cc1 [Example 3.16],104
18,CCN(CCC#N)c1nccc(N2CC[C@@H](Oc3ccc([C@H](C)NC(C)=O)cc3)C2)n1 [Example 8.72],167
19,CC(=O)N[C@@H](C)c1ccc(O[C@@H]2CCN(c3ncnc(N4CCCCC4)c3F)C2)cc1 [Example 8.138],105
20,CC(=O)N[C@@H](C)c1ccc(O[C@@H]2CCN(c3ccnc(N4CCC(C)(C)C4)n3)C2)cc1 [Example 8.78],260
21,CCCNc1ncc(Cl)c(N2CC[C@@H](Oc3ccc([C@H](C)NC(C)=O)cc3)C2)n1 [Example 8.55],987

row,Compound,IC50 [nM]
1,C[C@H](NC(=O)N(C)C)c1ccc(O[C@@H]2CCN(c3ncnc(OCC(C)(F)F)c3F)C2)cc1 [Example 3.19],155
2,C[C@H](NC(=O)N1CCOCC1)c1ccc(OC2CCN(c3ncnc(OCC4CC4)c3F)C2)cc1 (stereo partly drawn) [Example 3.12],203
3,C[C@H](NC(=O)N1CCOCC1)c1ccc(OC2CCN(c3ccnc(N4CCOCC4)n3)C2)cc1 (stereo partly drawn) [Example 3.6],605
4,CC(=O)N[C@@H](C)c1ccc(O[C@@H]2CCN(c3ncnc(OC4CCCC4)c3F)C2)cc1 [Example 7.47],58
5,CC(=O)N[C@@H](C)c1ccc(O[C@@H]2CCN(c3nc(OCC4CC4(F)F)ncc3F)C2)cc1 (stereo partly drawn) [Example 7.67],789
6,CC(=O)N[C@@H](C)c1ccc(O[C@@H]2CCN(c3ccnc(N4CCC5(CC5)C4)n3)C2)cc1 [Example 8.76],155
7,CC(=O)N[C@@H](C)c1ccc(O[C@@H]2CCN(c3ccnc(N4CCC(C)C4)n3)C2)cc1 (stereo partly drawn) [Example 8.17],167
8,CC(=O)N[C@@H](C)c1ccc(O[C@@H]2CCN(c3ncnc(OCC4CC4)c3Cl)C2)cc1 [Example 7.20],35
9,"CC(=O)N[C@@H](C)c1ccc(O[C@@H]2CCN(c3nc(N(C)C)ncc3F)C2)cc1 [Example 8.1, N—((S)-1-(4-((R)-1-(2-(dimethylamino)-5-fluoropyrimidin-4-yl)pyrrolidin-3-yloxy)phenyl)ethyl)acetamide]",55
10,CC(=O)N[C@@H](C)c1ccc(O[C@@H]2CCN(c3ccnc(N(C)CC(F)F)n3)C2)cc1 [Example 8.44],55
11,CC(=O)N[C@@H](C)c1ccc(O[C@@H]2CCN(c3ncnc(OC4CCOCC4)c3Cl)C2)cc1 [Example 7.64],128
12,CC(=O)N[C@@H](C)c1ccc(O[C@@H]2CCN(c3nc(N(C)C)ncc3Br)C2)cc1 [Example 8.58],484
13,CC(=O)N[C@@H](C)c1ccc(O[C@@H]2CCN(c3ncnc(NCC4CC4)c3F)C2)cc1 [Example 8.121],169
14,CC(=O)N[C@@H](C)c1ccc(O[C@@H]2CCN(c3ccnc(N4CCOCC4)n3)C2)cc1 [Example 8.71],199
15,CCCc1cnc(N2CC[C@@H](Oc3ccc([C@H](C)NC(C)=O)cc3)C2)nc1 [Example 6.25],714
16,C[C@H](NC(=O)OCC1CC1)c1ccc(O[C@@H]2CCN(c3ncnc(OCC4CC4)c3F)C2)cc1 [Example 7.36],2900
17,CCCN(C)c1cc(N2CC[C@@H](Oc3ccc([C@H](C)NC(C)=O)cc3)C2)ncn1 [Example 8.7],865
18,CC(=O)N[C@@H](C)c1ccc(O[C@@H]2CCN(c3nccc(C(F)(F)F)n3)C2)cc1 [Example 6.23],1730
19,CC(=O)N[C@@H](C)c1ccc(O[C@@H]2CCN(c3ncnc(OC4CCC4)c3F)C2)cc1 [Example 7.27],35
20,COc1c(OCC2CC2)ncnc1N1CC[C@@H](Oc2ccc([C@H](C)NC(=O)C3CC(F)C3)cc2)C1 (stereo partly drawn) [Example 2.30],528
